Results taken from US8192962B2, “Processes for detecting toxic substances” (Daikin Industries, Ltd., priority 2001, dated 2012).

Tested on: Unknown protein yeast genes
Assay: DNA chip mRNA expression in yeast, unknown protein yeast genes (Table 1)
Assay type: cell-based, Saccharomyces cerevisiae S288C
Protocol: Yeast (Saccharomyces cerevisiae S288C (α SUC2mal mel gap2 CUP1)) were incubated at 25° C. on YPD medium (yeast extract 1%, polypepton 2%, glucose 2%). One of toxic chemical substances was added to the cells at logarithmic growth phase, and the cells were further incubated for two hours. Cells were cultured without any chemical substance in the same condition, and were used as control. Concentrations of the chemical substances were defined to inhibit the growth of the yeast but not lead to death.
After completion of the incubation, the culture was centrifuged to collect the cells. To the cells, sodium acetate buffer (50 mM sodium acetate, 10 mM EDTA, 1% SDS) was added, and the mixture was shaken at 65° C. for five minutes, followed by returning to room temperature, and obtaining the supernatant, of which the procedures were repeated two times. To the supernatant, ½ amount of a solution of phenol/chloroform was added, and the mixture was centrifuged to give a supernatant, which was added with an equal amount of chloroform, and the mixture was centrifuged to give a supernatant. To the supernatant, an equal amount of isopropanol containing 0.3 M sodium acetate was added, and the mixture was allowed to stand at room temperature for 30 minutes, after which the mixture was centrifuged to give a sediment of the whole RNAs. Seventy % ethanol was added to the sediment, and the mixture was again centrifuged to give a sediment, which was then dried and dissolved in water. mRNA was isolated from the whole RNAs as followings. In view of the fact that a poly A chain is attached to the 3′ terminus of mRNA, a polynucleotide having a poly T structure which was immobilized on the surface of latex beads was used to trap the mRNA, and then the mRNA was washed and eluted with spine column (Oligotex-dT30<Super>mRNA Purification Kit, Takara). Reverse transcription of the mRNA was conducted with a reverse transcriptase (Super Script II Reverse Transcriptase; catalogue No. 18064-014, GibcoBRL) using fluorescence-labeled nucleotides to give cDNAs that were introduced with Cy3-dUTP or Cy5-dUTP during the reverse transcription.
The labeled cDNAs were dissolved in TE buffer (10mM Tris-HCl/1 mM EDTA, pH8.0), and the solution was dropped on the DNA chip containing the whole genes of yeast (DNA Chip Research Inc. Japan) so that the cDNAs were hybridized on the DNA chip at 65° C. for over 12 hours. The fluoresces intensity of the DNA chip was read with a scanner, and the ratio relative to the fluorescence intensity resulting from the absence of chemical substance was estimated as the following, which is shown in Tables 1 to 9: […]

In the case of `[Cl][Cd][Cl]` [(2), CdCl2], the “The level of expressed mRNA in the presence of chemical substance/The level of expressed mRNA in the absence of chemical substance” value (yeast gene YKL195W, incubated two hours with chemical substance) is reported as 0.5, the “The level of expressed mRNA in the presence of chemical substance/The level of expressed mRNA in the absence of chemical substance” value (yeast gene YKR091W, incubated two hours with chemical substance) is reported as 2.3 and the “The level of expressed mRNA in the presence of chemical substance/The level of expressed mRNA in the absence of chemical substance” value (yeast gene YLR054C, incubated two hours with chemical substance) is reported as 1.5. The “The level of expressed mRNA in the presence of chemical substance/The level of expressed mRNA in the absence of chemical substance” value (yeast gene YLR149C, incubated two hours with chemical substance) was 1.9, the “The level of expressed mRNA in the presence of chemical substance/The level of expressed mRNA in the absence of chemical substance” value (yeast gene YLR152C, incubated two hours with chemical substance) was 1.3 and the “The level of expressed mRNA in the presence of chemical substance/The level of expressed mRNA in the absence of chemical substance” value (yeast gene YLR194C, incubated two hours with chemical substance) was 2.2. The “The level of expressed mRNA in the presence of chemical substance/The level of expressed mRNA in the absence of chemical substance” value (yeast gene YLR324W, incubated two hours with chemical substance) was 1.2, the “The level of expressed mRNA in the presence of chemical substance/The level of expressed mRNA in the absence of chemical substance” value (yeast gene YLR350W, incubated two hours with chemical substance) was 1.9 and the “The level of expressed mRNA in the presence of chemical substance/The level of expressed mRNA in the absence of chemical substance” value (yeast gene YLR387C, incubated two hours with chemical substance) was 1.6. For the same compound, the “The level of expressed mRNA in the presence of chemical substance/The level of expressed mRNA in the absence of chemical substance” value (yeast gene YLR460C) was 2.1, the “The level of expressed mRNA in the presence of chemical substance/The level of expressed mRNA in the absence of chemical substance” value (yeast gene YML117W, incubated two hours with chemical substance) was 2.2 and the “The level of expressed mRNA in the presence of chemical substance/The level of expressed mRNA in the absence of chemical substance” value (yeast gene YMR009W, incubated two hours with chemical substance) was 1.9. The “The level of expressed mRNA in the presence of chemical substance/The level of expressed mRNA in the absence of chemical substance” value (yeast gene YMR067C, incubated two hours with chemical substance) was 0.9, the “The level of expressed mRNA in the presence of chemical substance/The level of expressed mRNA in the absence of chemical substance” value (yeast gene YMR090W) was 9.5 and the “The level of expressed mRNA in the presence of chemical substance/The level of expressed mRNA in the absence of chemical substance” value (yeast gene YMR095C, incubated two hours with chemical substance) was 2.0. For the same compound, the “The level of expressed mRNA in the presence of chemical substance/The level of expressed mRNA in the absence of chemical substance” value (yeast gene YMR097C, incubated two hours with chemical substance) was 1.0, the “The level of expressed mRNA in the presence of chemical substance/The level of expressed mRNA in the absence of chemical substance” value (yeast gene YMR102C, incubated two hours with chemical substance) was 2.9 and the “The level of expressed mRNA in the presence of chemical substance/The level of expressed mRNA in the absence of chemical substance” value (yeast gene YMR107W, incubated two hours with chemical substance) was 3.9. The “The level of expressed mRNA in the presence of chemical substance/The level of expressed mRNA in the absence of chemical substance” value (yeast gene YMR180C, incubated two hours with chemical substance) was 0.9, the “The level of expressed mRNA in the presence of chemical substance/The level of expressed mRNA in the absence of chemical substance” value (yeast gene YMR184W, incubated two hours with chemical substance) was 5.4 and the “The level of expressed mRNA in the presence of chemical substance/The level of expressed mRNA in the absence of chemical substance” value (yeast gene YMR191W, incubated two hours with chemical substance) was 2.4. For the same compound, the “The level of expressed mRNA in the presence of chemical substance/The level of expressed mRNA in the absence of chemical substance” value (yeast gene YMR295C, incubated two hours with chemical substance) was 1.0, the “The level of expressed mRNA in the presence of chemical substance/The level of expressed mRNA in the absence of chemical substance” value (yeast gene YMR316W, incubated two hours with chemical substance) was 2.9 and the “The level of expressed mRNA in the presence of chemical substance/The level of expressed mRNA in the absence of chemical substance” value (yeast gene YNL044W, incubated two hours with chemical substance) was 0.9. For the same compound, the “The level of expressed mRNA in the presence of chemical substance/The level of expressed mRNA in the absence of chemical substance” value (yeast gene YNL074C, incubated two hours with chemical substance) was 1.3, the “The level of expressed mRNA in the presence of chemical substance/The level of expressed mRNA in the absence of chemical substance” value (yeast gene YNL092W, incubated two hours with chemical substance) was 1.4 and the “The level of expressed mRNA in the presence of chemical substance/The level of expressed mRNA in the absence of chemical substance” value (yeast gene YNL115C, incubated two hours with chemical substance) was 1.8. For the same compound, the “The level of expressed mRNA in the presence of chemical substance/The level of expressed mRNA in the absence of chemical substance” value (yeast gene YNL156C, incubated two hours with chemical substance) was 1.2, the “The level of expressed mRNA in the presence of chemical substance/The level of expressed mRNA in the absence of chemical substance” value (yeast gene YNL234W, incubated two hours with chemical substance) was 1.1 and the “The level of expressed mRNA in the presence of chemical substance/The level of expressed mRNA in the absence of chemical substance” value (yeast gene YNL281W, incubated two hours with chemical substance) was 1.3. For the same compound, the “The level of expressed mRNA in the presence of chemical substance/The level of expressed mRNA in the absence of chemical substance” value (yeast gene YNL305C, incubated two hours with chemical substance) was 2.2, the “The level of expressed mRNA in the presence of chemical substance/The level of expressed mRNA in the absence of chemical substance” value (yeast gene YNR068C, incubated two hours with chemical substance) was 1.5 and the “The level of expressed mRNA in the presence of chemical substance/The level of expressed mRNA in the absence of chemical substance” value (yeast gene YOL032W, incubated two hours with chemical substance) was 0.8. For the same compound, the “The level of expressed mRNA in the presence of chemical substance/The level of expressed mRNA in the absence of chemical substance” value (yeast gene YOL036W, incubated two hours with chemical substance) was 0.9, the “The level of expressed mRNA in the presence of chemical substance/The level of expressed mRNA in the absence of chemical substance” value (yeast gene YOL047C, incubated two hours with chemical substance) was 1.1 and the “The level of expressed mRNA in the presence of chemical substance/The level of expressed mRNA in the absence of chemical substance” value (yeast gene YOL071W, incubated two hours with chemical substance) was 2.0. The “The level of expressed mRNA in the presence of chemical substance/The level of expressed mRNA in the absence of chemical substance” value (yeast gene YOL082W, incubated two hours with chemical substance) was 1.6, the “The level of expressed mRNA in the presence of chemical substance/The level of expressed mRNA in the absence of chemical substance” value (yeast gene YOL083W, incubated two hours with chemical substance) was 2.3 and the “The level of expressed mRNA in the presence of chemical substance/The level of expressed mRNA in the absence of chemical substance” value (yeast gene YOL117W, incubated two hours with chemical substance) was 1.1. For the same compound, the “The level of expressed mRNA in the presence of chemical substance/The level of expressed mRNA in the absence of chemical substance” value (yeast gene YOL131W, incubated two hours with chemical substance) was 1.5, the “The level of expressed mRNA in the presence of chemical substance/The level of expressed mRNA in the absence of chemical substance” value (yeast gene YOL150C) was 3.7 and the “The level of expressed mRNA in the presence of chemical substance/The level of expressed mRNA in the absence of chemical substance” value (yeast gene YOL162W, incubated two hours with chemical substance) was 6.9. The “The level of expressed mRNA in the presence of chemical substance/The level of expressed mRNA in the absence of chemical substance” value (yeast gene YOR019W, incubated two hours with chemical substance) was 1.2, the “The level of expressed mRNA in the presence of chemical substance/The level of expressed mRNA in the absence of chemical substance” value (yeast gene YOR197W, incubated two hours with chemical substance) was 1.0 and the “The level of expressed mRNA in the presence of chemical substance/The level of expressed mRNA in the absence of chemical substance” value (yeast gene YPL087W, incubated two hours with chemical substance) was 5.1. For the same compound, the “The level of expressed mRNA in the presence of chemical substance/The level of expressed mRNA in the absence of chemical substance” value (yeast gene YPL196W, incubated two hours with chemical substance) was 1.6, the “The level of expressed mRNA in the presence of chemical substance/The level of expressed mRNA in the absence of chemical substance” value (yeast gene YPL206C, incubated two hours with chemical substance) was 2.9 and the “The level of expressed mRNA in the presence of chemical substance/The level of expressed mRNA in the absence of chemical substance” value (yeast gene YPL222W, incubated two hours with chemical substance) was 3.5. For the same compound, the “The level of expressed mRNA in the presence of chemical substance/The level of expressed mRNA in the absence of chemical substance” value (yeast gene YPR023C, incubated two hours with chemical substance) was 1.4 and the “The level of expressed mRNA in the presence of chemical substance/The level of expressed mRNA in the absence of chemical substance” value (yeast gene YPR151C, incubated two hours with chemical substance) was 2.0.
